What all share (assay type): in vivo
Assay [1] has as its system Johnsongrass (Sorghum halepense). The assay can be described thus: Postemergence herbicidal activity, johnsongrass. The conditions noted are these: rate of application 0.3 Kg/Ha, rated after 12-17 days. On the procedure:
(§1) The benzofused heterocyclic compounds of this invention were tested for pre- and postemergence herbicidal activity using a variety of crops and weeds. The test plants included soybean (Glycine max var. Winchester), field corn (Zea mays var. Pioneer 3732), wheat (Triticum aestivum var. Lew), morningglory (Ipomea lacunosa or Ipomea hederacea), velvetleaf (Abutilon theophrasti), green foxtail (Setaria viridis), Johnsongrass (Sorghum halepense), blackgrass (Aloepecurus myosuroides), common chickweed (Stellaria media), and common cocklebur (Xanthium strumarium L.).
(§2) For preemergence testing, two disposable fiber flats (8 cm×15 cm×25 cm) for each rate of application of each candidate herbicide were filled to an approximate depth of 6.5 cm with steam-sterilized sandy loam soil. The soil was leveled and impressed with a template to provide five evenly spaced furrows 13 cm long and 0.5 cm deep in each flat. Seeds of soybean, wheat, corn, green foxtail, and johnsongrass were planted in the furrows of the first flat, and seeds of velvetleaf, morningglory, common chickweed, cocklebur, and blackgrass were planted in the furrows of the second flat. The five-row template was employed to firmly press the seeds into place. A topping soil of equal portions of sand and sandy loam soil was placed uniformly on top of each flat to a depth of approximately 0.5 cm. Flats for postemergence testing were prepared in the same manner except that they were planted 9-14 days prior to the preemergence flats and were placed in a greenhouse and watered, thus allowing the seeds to germinate and the foliage to develop.
(§3) In both pre- and postemergence tests, a stock solution of the candidate herbicide was prepared by dissolving 0.27 g of the compound in 20 mL of water/acetone (50/50) containing 0.5% v/v sorbitan monolaurate. For an application rate of 3000 g/ha of herbicide a 10 mL portion of the stock solution was diluted with water/acetone (50/50) to 45 mL.
(§4) The preemergence flats were initially subjected to a light water spray. The four flats were placed two by two along a conveyor belt (i.e., the two preemergence followed by the two postemergence flats). The conveyor belt fed under a spray nozzle mounted about ten inches above the post-emergent foliage. The preemergent flats were elevated on the belt so that the soil surface was at the same level below the spray nozzle as the foliage canopy of the postemergent plants. The spray of herbicidal solution was commenced and once stabilized, the flats were passed under the spray at a speed to receive a coverage equivalent of 100 L/ha. At this coverage the application rates are those shown in the above table for the individual herbicidal solutions. The preemergence flats were watered immediately thereafter, placed in the greenhouse and watered regularly at the soil surface. The postemergence flats were immediately placed in the green-house and not watered until 24 hours after treatment with the test solution. Thereafter they were regularly watered at ground level. After 12-17 days the plants were examined and the phytotoxicity data were recorded.
(§5) Phytotoxicity data were taken as percent control. Percent control was determined by a method similar to the 0 to 100 rating system disclosed in “Research Methods in Weed Science,” 2nd ed., B. Truelove, Ed.; Southern Weed Science Society; Auburn University, Auburn, Ala., 1977.

For assay [2], the system named is wheat (Triticum aestivum var. Lew). Put plainly: Postemergence herbicidal activity, wheat. The conditions noted are these: rate of application 0.3 Kg/Ha, rated after 12-17 days. On the procedure:
as §1, §2, §3, §4, §5

In assay [3] the test system is field corn (Zea mays var. Pioneer 3732). The assay can be described thus: Postemergence herbicidal activity, corn. The settings on record: rate of application 0.3 Kg/Ha, rated after 12-17 days. On the procedure: as §1, §2, §3, §4, §5
Assay [4] deals with green foxtail (Setaria viridis). Put plainly: Postemergence herbicidal activity, green foxtail. The settings on record: rate of application 0.3 Kg/Ha, rated after 12-17 days. On the procedure: as §1, §2, §3, §4, §5
Assay [5] has as its system soybean (Glycine max var. Winchester). The assay can be described thus: Postemergence herbicidal activity, soybean. The conditions noted are these: rate of application 0.3 Kg/Ha, rated after 12-17 days. On the procedure:
as §1, §2, §3, §4, §5

The subject of assay [6] is common chickweed (Stellaria media). Put plainly: Preemergence herbicidal activity, chickweed. The settings on record: Rate of Application 0.3 Kg/Ha, examined after 12-17 days. On the procedure:
as §1, §2, §3, §4, §5

Assay [7] relates to Johnsongrass (Sorghum halepense). Put plainly: Preemergence herbicidal activity, johnsongrass. The conditions noted are these: Rate of Application 0.3 Kg/Ha, examined after 12-17 days. On the procedure: as §1, §2, §3, §4, §5
Assay [8] deals with common chickweed (Stellaria media). Put plainly: Postemergence herbicidal activity, chickweed. The conditions noted are these: rate of application 0.3 Kg/Ha, rated after 12-17 days. On the procedure:
as §1, §2, §3, §4, §5

The subject of assay [9] is common cocklebur (Xanthium strumarium L.). The assay can be described thus: Postemergence herbicidal activity, cocklebur. The settings on record: rate of application 0.3 Kg/Ha, rated after 12-17 days. On the procedure: as §1, §2, §3, §4, §5
Assay [10] has as its system morningglory (Ipomea lacunosa or Ipomea hederacea). Put plainly: Postemergence herbicidal activity, morningglory. The conditions noted are these: rate of application 0.3 Kg/Ha, rated after 12-17 days. On the procedure:
as §1, §2, §3, §4, §5

For assay [11] the test system is unchanged. The assay can be described thus: Preemergence herbicidal activity, morningglory. The conditions noted are these: Rate of Application 0.3 Kg/Ha, examined after 12-17 days. On the procedure:
as §1, §2, §3, §4, §5

Assay [12] relates to wheat (Triticum aestivum var. Lew). Put plainly: Preemergence herbicidal activity, wheat. The settings on record: Rate of Application 0.3 Kg/Ha, examined after 12-17 days. On the procedure:
as §1, §2, §3, §4, §5

Assay [13] concerns green foxtail (Setaria viridis). The assay can be described thus: Preemergence herbicidal activity, green foxtail. The settings on record: Rate of Application 0.3 Kg/Ha, examined after 12-17 days. On the procedure:
as §1, §2, §3, §4, §5

The subject of assay [14] is field corn (Zea mays var. Pioneer 3732). The assay can be described thus: Preemergence herbicidal activity, corn. The conditions noted are these: Rate of Application 0.3 Kg/Ha, examined after 12-17 days. On the procedure:
as §1, §2, §3, §4, §5

For assay [15], the system named is velvetleaf (Abutilon theophrasti). Put plainly: Preemergence herbicidal activity, velvetleaf. The conditions noted are these: Rate of Application 0.3 Kg/Ha, examined after 12-17 days. On the procedure: as §1, §2, §3, §4, §5
Assay [16] has as its system soybean (Glycine max var. Winchester). The assay can be described thus: Preemergence herbicidal activity, soybean. The conditions noted are these: Rate of Application 0.3 Kg/Ha, examined after 12-17 days. On the procedure: as §1, §2, §3, §4, §5
The subject of assay [17] is velvetleaf (Abutilon theophrasti). The assay can be described thus: Postemergence herbicidal activity, velvetleaf. The conditions noted are these: rate of application 0.3 Kg/Ha, rated after 12-17 days. On the procedure:
as §1, §2, §3, §4, §5

Assay [18] has as its system common cocklebur (Xanthium strumarium L.). Put plainly: Preemergence herbicidal activity, cocklebur. The conditions noted are these: Rate of Application 0.3 Kg/Ha, examined after 12-17 days. On the procedure:
as §1, §2, §3, §4, §5

The structures appear in SMILES notation.

`Cn1c(C(F)(F)F)cc(=O)n(-c2c(F)cc(Cl)c3cc(CCO)oc23)c1=O` [Compound 239]: in assay [1], the “Postemergence herbicidal activity (% control) SORHA” value came to 80%. Moreover, in [2], the “Postemergence herbicidal activity (% control) WHT” value was determined as 60%. Also, the “Postemergence herbicidal activity (% control) CRN” value in [3] came to 80%. Further, the “Postemergence herbicidal activity (% control) SETVI” value in assay [4] amounted to 100%. For the same molecule, the “Postemergence herbicidal activity (% control) SOY” value in assay [5] was determined as 95%. In addition, the “PREEMERGENCE HERBICIDAL ACTIVITY (% CONTROL) STEME” value in assay [6] is 100%. For the same molecule, in assay [7], the “PREEMERGENCE HERBICIDAL ACTIVITY (% CONTROL) SORHA” value was 90%. The “Postemergence herbicidal activity (% control) STEME” value in assay [8] came to 100%. The “Postemergence herbicidal activity (% control) XANPE” value in [9] is recorded as 100%. In assay [10], the “Postemergence herbicidal activity (% control) IPOSS” value was determined as 100%. In assay [11], the “PREEMERGENCE HERBICIDAL ACTIVITY (% CONTROL) IPOSS” value amounted to 100%. Further, the “PREEMERGENCE HERBICIDAL ACTIVITY (% CONTROL) WHT” value in assay [12] came to 70%. Also, the “PREEMERGENCE HERBICIDAL ACTIVITY (% CONTROL) SETVI” value in assay [13] was 100%. Further, in assay [14], the “PREEMERGENCE HERBICIDAL ACTIVITY (% CONTROL) CRN” value was determined as 90%. Moreover, in assay [15], the “PREEMERGENCE HERBICIDAL ACTIVITY (% CONTROL) ABUTH” value is 100%. Further, the “PREEMERGENCE HERBICIDAL ACTIVITY (% CONTROL) SOY” value in [16] is reported as 100%. Further, in assay [17], the “Postemergence herbicidal activity (% control) ABUTH” value is recorded as 100%.

In the case of `CCOC(=O)c1cc2c(Cl)ccc(-n3c(=O)cc(C(F)(F)F)n(C)c3=O)c2o1` [Compound 268], the “Postemergence herbicidal activity (% control) SORHA” value in assay [1] is 40%. In assay [2], the “Postemergence herbicidal activity (% control) WHT” value is 40%. The “Postemergence herbicidal activity (% control) CRN” value in [3] is on record as 60%. In addition, the “Postemergence herbicidal activity (% control) SETVI” value in assay [4] amounted to 70%. Further, in [18], the “PREEMERGENCE HERBICIDAL ACTIVITY (% CONTROL) XANPE” value worked out at 0%. Besides, the “Postemergence herbicidal activity (% control) SOY” value in [5] is 70%. In addition, the “PREEMERGENCE HERBICIDAL ACTIVITY (% CONTROL) STEME” value in assay [6] is 20%. Further, the “PREEMERGENCE HERBICIDAL ACTIVITY (% CONTROL) SORHA” value in assay [7] came out at 60%. Also, in assay [8], the “Postemergence herbicidal activity (% control) STEME” value was 20%. Further, in assay [10], the “Postemergence herbicidal activity (% control) IPOSS” value was 90%. In addition, in assay [11], the “PREEMERGENCE HERBICIDAL ACTIVITY (% CONTROL) IPOSS” value is 95%. Besides, in assay [12], the “PREEMERGENCE HERBICIDAL ACTIVITY (% CONTROL) WHT” value came to 30%. Moreover, the “PREEMERGENCE HERBICIDAL ACTIVITY (% CONTROL) SETVI” value in assay [13] is on record as 60%. Also, the “PREEMERGENCE HERBICIDAL ACTIVITY (% CONTROL) CRN” value in assay [14] was 50%. The “PREEMERGENCE HERBICIDAL ACTIVITY (% CONTROL) ABUTH” value in assay [15] was 100%. For the same molecule, the “PREEMERGENCE HERBICIDAL ACTIVITY (% CONTROL) SOY” value in assay [16] stood at 30%. Also, in assay [17], the “Postemergence herbicidal activity (% control) ABUTH” value was determined as 50%.

Values taken from patent US6352958B1, “Cycloimido-substituted benzofused heterocyclic herbicides” (FMC Corporation, priority 1997, dated 2002).
